In paper PMC4336331, “Novel Receptor-Derived Cyclopeptides to Treat Heart Failure Caused by Anti-β1-Adrenoceptor Antibodies in a Human-Analogous Rat Model” (PLoS ONE, 2015):
Peptide text beside a SMILES is read from it.

System: anti-β1EC2-antibodies
Experiment: Free anti-β1EC2-titers by ELISA, prevention-study
Assay type: in vivo, Lewis/CrlBR rats
Settings: 1.0 mg/kg i.v. monthly
Method: For treatment groups (a), (b), and (f) in total n = 38 non-immunised rats were injected with 0.9% NaCl and treated in parallel (“negative” controls). Blood was taken at regular intervals; rat-IgG was prepared by caprylic acid precipitation and assayed for reactivity by ELISA or competition-ELISA against linear peptides corresponding to the human β1EC2-sequence (AA199-223)[12], and by immuno-fluorescence microscopy with human embryonic kidney (HEK)293 cells stably expressing 0.4 pmol β1-AR/mg membrane protein (HEKβ1-cells). Specificity of the anti-β1EC2-abs was confirmed by co-localisation experiments using previously characterised N-terminal rabbit anti-β1-abs. Bound antibodies were detected with appropriate species-specific secondary antibodies (Dianova, Hamburg, Germany; anti-rabbit-, or anti-rat-Fab2, conjugated to Cy2 or Cy3). Calibrated rat-IgG (Dianova) served to quantify specific IgG-antibodies.
Fig 2 Study protocol and cardioprotection with cyclic β1EC2-peptides. Flow charts of the (A) prevention- and (E) therapy-study with β1EC2-mimicking peptides in the rat. Numbers given refer to animal-numbers in the respective study-groups. Immunisation with β1EC2/GST-FP (or 0.9% NaCl for controls) was started at t = 0. […] Titers were measured before and 24h after CP-injection. […] For better readability error-bars are not shown in the graph. […]

CC(C)[C@@H]1NC(=O)[C@H](Cc2ccccc2)NC(=O)[C@H](CC(=O)O)NC(=O)[C@H](CS)NC(=O)[C@H](CS)NC(=O)[C@H](CCCCN)NC(=O)[C@@H]2CCCN2C(=O)[C@H](CC(=O)O)NC(=O)[C@H](CC(N)=O)NC(=O)[C@H](Cc2ccc(O)cc2)NC(=O)[C@H](CS)NC(=O)[C@H](CCCNC(=N)N)NC(=O)[C@H](CCCNC(=N)N)NC(=O)[C@H](C)NC(=O)[C@H](CCC(=O)O)NC(=O)[C@H](CC(=O)O)NC(=O)[C@H](CO)NC(=O)[C@H](CCC(=O)O)NC(=O)[C@H](C)NC(=O)[C@H](CCCNC(=N)N)NC(=O)[C@H](C)NC(=O)[C@H](CCC(N)=O)NC(=O)CNC(=O)[C@H](CCCNC(=N)N)NC(=O)[C@H](CC(N)=O)NC(=O)[C@H]([C@@H](C)O)NC1=O [β1EC2-CP] (cyclo(AESDEARRCYNDPKCCDFVTNRGQAR))
reduction in free anti-β1EC2-abs vs. initial values (after 5 injections, ELISA (Fig. 2B)): > 80%
anti-β1EC2-titers in % of the initial values (after 9–10 injections, despite monthly antigen-boosts (Fig. 2B)): ~10%
